Experimental findings from PMC5011760, “Luteolin Attenuates Airway Mucus Overproduction via Inhibition of the GABAergic System” (Scientific Reports, 2016) are described below.

pIC50: −log10 of the molar value.

This assay relates to T1, GABAA receptors (GABAAR) in A549 cells.
T1 construct: gene GABRA3; endogenous receptors of A549 cells, pentameric; exact subunit composition not determined (members = most abundant subunit mRNAs)
Description: whole-cell patch clamp, A549 cells. The format is cell-based. Particulars: inhibition of currents evoked by 2.5 μM GABA; -60 mV, pH 7.4; authors call it allosteric modulator. Background: In patch-clamp work, channel activity is measured electrically.

What is called pIC50 is −log10 of the IC50, conventionally taken in molar units. The compound `O=c1cc(-c2ccc(O)c(O)c2)oc2cc(O)cc(O)c12` [luteolin, 3′,4′,5,7-tetrahydroxyflavone] gave a pIC50 of 5.09.
